Patent US20040242566A1, “Dipeptidyl peptidase inhibitors” (Syrrx, Inc., priority 2003, published 2004)

test: in vitro; settings: rat, rat liver microsomes, pH 7.4
Procedure: Several compounds were evaluated for stability in rat liver microsomes.
The test compounds (1 p) were incubated at 37° C. in phosphate buffer (50 mM, pH 7.4) containing rat liver microsomes (1 mg/mL protein) and NADPH (Nicotinamide Adenine Dinucleotide Phosphate, reduced form) (4 mM). The incubation mixtures were quenched with trichloroacetic acid (0.3 M) over 0, 5, 15, 30 min time-course. Quenched solutions were centrifuged and supernatants were transferred for LC/MS quantitation. The half life of a test compounds was derived from the compound stability curve over the time course.

Row | half-life at 1 p [min] | SMILES
1 | 31 | N#Cc1ccccc1Cn1c(N2CCCC(N)C2)nc2ccc(F)cc2c1=O (stereo not drawn) [Example 6, 2-[2-(3-Amino-piperidin-1-yl)-6-fluoro4-oxo4H-quinazolin-3-ylmethyl]-benzonitrile]
2 | 107 | COc1cc2nc(N3CCCC(N)C3)n(Cc3ccccc3C#N)c(=O)c2cc1OC (stereo not drawn) [Example 2, 2-[2-(3-Amino-piperidin-1-yl)-6,7-dimethoxy-4-oxo-4H-quinazolin-3-ylmethyl]-benzonitrile]
3 | 2.5 | N#Cc1ccccc1Cn1c(N2CCCC(N)C2)nc2ccccc2c1=O (stereo not drawn) [Example 1, 2-[2-(3-Amino-piperidin-1-yl)-4-oxo4H-quinazolin-3-ylmethyl]-benzonitrile]
